Measurements published in patent US10265298B2, “Method of increasing the bioavailability of silybin” (Macau University of Science and Technology, priority 2017, dated 2019).

Assays:
[1] = test system: Caco-2 cells; test: Glucuronidation of silybin in Caco-2 cells (LC-MS peak area of silybin glucuronides); format: in vitro ADME, human; details: silybin 10 μM, test compound 20 μM co-incubation
Description: The analysis of silybin and total concentrations of glucuronides and sulfates was performed on an Agilent HP 1100 LC-MS system (Agilent, CA). A Waters ACQUITY UPLC® BEH C18 Column (1.7 μm, 2.1×50 mm, Waters Corp., Ireland) was used for detection with a C18 Security Guard cartridge (4×2.0 mm i.d., Phenomenex, Torrance, Calif.). Silybin A and silybin B were well separated using optimized gradient elution with methanol (mobile phase B) and 0.1% formic acid in water (mobile phase A) as mobile phase at a flow rate of 0.4 ml/min with a run time of 10 minutes. The gradient employed was as follows (time: mobile phase B percentage): 0 min: 25%, 6 minutes: 40%, 6.5 minutes: 25%.
MS parameters including: capillary voltage, −4000 V; nebulizer pressure, 40 pounds per square inch (psi); drying gas, 9 liters per minute (L/min); drying gas temperature, 325° C.; fragment voltage, 35 volts; dwell time, 200 milliseconds (ms); scan mode, selective ion monitoring (SIM) with [M-H]− for silybin (mass-to-charge ratio (m/z) 481), mono-glucuronide (m/z 657), and NG (m/z 271), respectively. LC-MS data were obtained by Agilent ChemStation Software.
Silybin is primarily metabolized to glucuronide (about 55%) and sulfate (about 28%) conjugates in human plasma after oral administration. To examine whether the co-incubation of flavonoids could affect the conjugation of silybin, the peak area of silybin glucuronides was measured by LC-MS (FIG. 6). Identification of glucuronides in the samples was based on their MS in-source fragmentations (m/z 657).

[2] = test system: rat sandwich-cultured hepatocytes; test: in vitro; format: in vitro ADME
Description: Sandwich-cultured rat hepatocytes (SCHs) were established according to previously described methods with minor modifications. Primary rat hepatocytes were isolated from male Sprague Dawley® (SD) rats (220-270 g) using a collagenase perfusion as described previously and plated at a density of 7.4×10^5 cells/2 ml/well onto six-well BioCoat plates. Approximately 24 hours later, hepatocytes were overlaid with 2 ml of 0.25 mg/ml BD Matrigel basement membrane matrix in Dulbecco's modified Eagle medium (DMEM) containing 1% volume by volume percentage (v/v) insulin/transferrin/selenium culture supplement, […] dexamethasone, 2 mM L-glutamine, 1% (v/v) minimum essential medium nonessential amino acids, 1% penicillin-streptomycin. Hepatocytes were cultured for 4 days to allow extensive formation of canalicular networks between cells before experimentation and the medium was changed daily.
Sandwich-cultured hepatocytes (SCHs) were pre-incubated in 2 milliliters (ml) of warm Hank's Balanced Salt Solution (HBSS) with or without Ca^2+ at 37° C. for 15 minutes; the tight junctions of the bile canaliculi open temporally after exposure to HBSS without Ca^2+. Subsequently, cells were incubated at 37° C. for 20 minutes with 1.5 ml of standard HBSS containing silybin (10 μM), or MK 571 (50 μM) as a positive control, or baicalein (25, 15.8, 5, 1.58, 0.5, 0.16 μM), or tangeretin (25, 15.8, 5, 1.58, 0.5 μM). After 20 min, cells were washed three times with ice-cold standard HBSS. The cell samples were lysed by sonication in 1 ml of water for 5 seconds with the ultrasonic cell disruption system (SONICS & […], INC., Newtown, Conn., USA). Conjugated silybin and unconjugated (free) silybin were quantified by high-performance liquid chromatography-tandem mass spectrometry (HPLC-MS/MS). Transport function was normalized to the protein content of the hepatocytes which was evaluated by bicinchoninic acid (BCA) protein assay (Pierce Chemical, Rockford, Ill.). The biliary excretion index (BEI; %) and in vitro biliary clearance (Clbiliary; ml/min/kg) were calculated by using B-CLEAR technology (Qualyst, Inc., Research Triangle Park, N.C.) based on the following equations: […]

[3] = biological target: MDR1 (P-gp) (Homo sapiens, UniProt P08183); test: cell-based
Description: (§1) Parental Madin-Darby canine kidney II (MDCKII), multi-drug resistance gene 1-Madin-Darby canine kidney II (MDR1-MDCKII), breast cancer resistance protein-Madin-Darby canine kidney II (BCRP-MDCKII), and multi-drug resistance protein 2-Madin-Darby canine kidney II (MRP2-MDCKII) cells were kindly provided by the Netherlands Cancer Institute (Amsterdam, Netherlands) and frozen at −80° C. The MDCKII cells were cultured at 37° C./5% CO2 in Dulbecco's modified Eagle's medium supplemented with 10% fetal bovine serum, 1% nonessential amino acids, and 2% penicillin-streptomycin. The cells were seeded on transwell inserts (Corning Inc.) at a density of 2.0×10^5 cells/cm^2 and grown for 4-5 days to form confluent monolayers.
(§2) Bidirectional transport assays in human colorectal adenocarcinoma 2 (Caco-2) and Madin-Darby canine kidney II (MDCK II) was carried out by dosing substrates in assay buffer to either the apical chamber (A-to-B) or the basolateral chamber (B-to-A); cells were then incubated at 37° C. with shaking at 50 rotations per minute (rpm), and 100 μl samples were collected at 30, 60, 90, 120 and 180 minutes from the basolateral chamber to study the drug transport of AP to BL, or apical chamber to study the drug transport of BL to AP. Cell monolayers were then washed twice with ice-cold assay buffer and lysed with methanol on ice for 10 minutes. For inhibition studies, Caco-2 or MDCK II cell monolayers were pre-incubated with an inhibitor in both apical and basolateral chambers for 30 minutes, and bidirectional transport of 10 μM silybin was conducted in the absence (control) or presence of the inhibitor in both chambers. […] For fluorescence intensity detection, samples collected from AP or BL side were immediately detected in 96 well black plate by Microplate ultraviolet-visible spectroscopy (UV/VIS) spectrophotometer (TECAN infinite M200 PRO, Männedorf, Switzerland). In all cases, each determination was performed in triplicate.
(§3) The apparent permeability coefficients (Papp) were calculated as Papp=dQ/dt×1/(C“0”A) where dQ/dt (mM/sec) is the rate of permeation of the drug across the cells, C0 (millimolar (mM)) is the donor compartment concentration at time zero and A (cm^2) is the area of the cell monolayer. C0 is obtained from analysis of the dosing solution at the start experiment. Efflux Ratio (ER)=Papp (B to A)/Papp (A to B), while Papp (B−A) is the Papp value measured in the B to A direction, and Papp (A−B) is the Papp value measured in the A to B direction. 1.5 Preparation of Rat Sandwich-Cultured Hepatocytes
(§4) (*, P<0.05;**, P<0.01; ***, P<0.001 vs absence of any inhibitor. n=3).
as §4

[4] = biological target: MRP2 (Homo sapiens, UniProt Q92887); test: cell-based; details: for efflux ratio of CDCFDA in the presence of inhibitor: dog, 180 min
Description: as §1, §2, §3, §4, §4

Chain of MRP2 (Q92887 whole entry): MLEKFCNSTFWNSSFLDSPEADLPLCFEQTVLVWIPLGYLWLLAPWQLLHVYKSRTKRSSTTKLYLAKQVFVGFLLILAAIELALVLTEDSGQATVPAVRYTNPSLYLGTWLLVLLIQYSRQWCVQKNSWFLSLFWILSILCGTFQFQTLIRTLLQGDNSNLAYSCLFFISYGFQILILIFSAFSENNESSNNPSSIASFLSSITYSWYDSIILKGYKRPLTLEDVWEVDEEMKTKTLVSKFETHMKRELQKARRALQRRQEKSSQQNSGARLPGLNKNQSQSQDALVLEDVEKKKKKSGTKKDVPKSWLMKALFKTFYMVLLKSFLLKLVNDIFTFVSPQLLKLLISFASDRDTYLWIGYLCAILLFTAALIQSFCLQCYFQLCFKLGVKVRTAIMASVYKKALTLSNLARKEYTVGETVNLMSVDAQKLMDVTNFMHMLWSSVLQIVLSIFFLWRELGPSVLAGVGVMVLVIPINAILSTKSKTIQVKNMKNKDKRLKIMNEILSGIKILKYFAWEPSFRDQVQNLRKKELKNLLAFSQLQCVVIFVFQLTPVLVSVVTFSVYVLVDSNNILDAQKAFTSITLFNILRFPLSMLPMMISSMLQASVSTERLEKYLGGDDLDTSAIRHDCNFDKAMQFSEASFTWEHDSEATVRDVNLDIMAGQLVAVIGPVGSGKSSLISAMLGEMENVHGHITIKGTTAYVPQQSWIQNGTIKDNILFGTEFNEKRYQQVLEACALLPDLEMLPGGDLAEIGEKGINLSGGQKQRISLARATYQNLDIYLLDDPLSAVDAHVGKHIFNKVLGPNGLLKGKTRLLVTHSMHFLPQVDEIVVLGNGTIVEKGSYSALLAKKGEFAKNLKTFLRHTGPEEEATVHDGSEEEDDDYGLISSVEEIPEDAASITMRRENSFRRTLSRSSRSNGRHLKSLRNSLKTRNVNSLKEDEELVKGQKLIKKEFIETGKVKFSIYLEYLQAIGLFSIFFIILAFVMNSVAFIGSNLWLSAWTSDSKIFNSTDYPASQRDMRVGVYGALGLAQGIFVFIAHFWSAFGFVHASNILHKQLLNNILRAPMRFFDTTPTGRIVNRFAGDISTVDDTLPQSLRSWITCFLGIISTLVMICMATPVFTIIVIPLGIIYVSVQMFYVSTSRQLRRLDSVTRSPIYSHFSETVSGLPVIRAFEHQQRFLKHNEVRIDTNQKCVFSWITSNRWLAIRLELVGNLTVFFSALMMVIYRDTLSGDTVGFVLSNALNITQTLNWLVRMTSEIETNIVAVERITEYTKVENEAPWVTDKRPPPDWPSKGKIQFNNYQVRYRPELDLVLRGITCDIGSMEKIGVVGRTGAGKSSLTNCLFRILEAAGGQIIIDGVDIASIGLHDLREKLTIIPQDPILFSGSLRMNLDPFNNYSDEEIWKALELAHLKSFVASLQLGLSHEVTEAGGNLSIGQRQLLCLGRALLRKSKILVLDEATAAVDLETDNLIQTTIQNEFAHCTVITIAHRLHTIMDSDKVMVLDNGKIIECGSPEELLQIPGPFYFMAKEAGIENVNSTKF
Chain of MDR1 (P-gp) (P08183 whole entry): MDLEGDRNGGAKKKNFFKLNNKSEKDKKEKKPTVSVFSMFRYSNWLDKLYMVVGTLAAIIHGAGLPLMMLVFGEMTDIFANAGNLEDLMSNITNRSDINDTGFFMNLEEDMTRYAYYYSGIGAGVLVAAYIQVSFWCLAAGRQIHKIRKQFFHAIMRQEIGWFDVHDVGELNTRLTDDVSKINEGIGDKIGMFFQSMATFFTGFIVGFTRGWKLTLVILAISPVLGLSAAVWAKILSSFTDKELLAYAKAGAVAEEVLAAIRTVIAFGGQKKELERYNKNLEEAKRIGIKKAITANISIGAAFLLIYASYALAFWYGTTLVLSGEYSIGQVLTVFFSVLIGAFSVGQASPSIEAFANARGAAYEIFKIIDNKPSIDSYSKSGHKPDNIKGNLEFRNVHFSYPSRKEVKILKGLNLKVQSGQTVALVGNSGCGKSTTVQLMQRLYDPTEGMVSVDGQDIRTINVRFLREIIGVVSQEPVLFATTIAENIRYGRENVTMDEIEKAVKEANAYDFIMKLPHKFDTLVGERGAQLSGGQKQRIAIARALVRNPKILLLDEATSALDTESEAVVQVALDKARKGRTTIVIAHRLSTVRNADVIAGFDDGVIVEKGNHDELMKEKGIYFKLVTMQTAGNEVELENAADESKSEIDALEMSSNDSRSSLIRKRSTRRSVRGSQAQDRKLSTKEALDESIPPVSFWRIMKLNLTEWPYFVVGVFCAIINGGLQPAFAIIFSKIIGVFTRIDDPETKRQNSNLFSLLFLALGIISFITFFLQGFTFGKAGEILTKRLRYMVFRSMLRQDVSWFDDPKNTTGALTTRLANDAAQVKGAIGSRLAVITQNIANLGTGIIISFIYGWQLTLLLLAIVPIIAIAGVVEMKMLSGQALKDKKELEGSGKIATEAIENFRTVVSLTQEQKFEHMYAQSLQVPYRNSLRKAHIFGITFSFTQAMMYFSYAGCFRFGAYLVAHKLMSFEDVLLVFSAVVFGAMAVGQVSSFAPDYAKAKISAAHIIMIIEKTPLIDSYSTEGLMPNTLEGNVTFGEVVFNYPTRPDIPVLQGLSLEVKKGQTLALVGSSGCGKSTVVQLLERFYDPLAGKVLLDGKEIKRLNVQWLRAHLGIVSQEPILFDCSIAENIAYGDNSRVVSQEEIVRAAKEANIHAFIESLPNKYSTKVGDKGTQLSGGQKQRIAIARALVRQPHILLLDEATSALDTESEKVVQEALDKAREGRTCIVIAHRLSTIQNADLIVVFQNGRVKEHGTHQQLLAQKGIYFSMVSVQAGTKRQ

Row | mean BEI (biliary excretion index), free silybin [2] | intrinsic biliary clearance ([2]; rat, hepatocytes) | Compound | effect on glucuronide metabolites / glucuronide conjugation of silybin [1] | reduction of biliary excretion of silybin ([2]; baicalein at 25 μM, silybin 10 μM) | IC50 [3] | IC50 [4] | efflux ratio of CDCFDA in the presence of inhibitor [4] | effect on biliary clearance of silybin ([2]; rat, hepatocytes)
1 | – | – | O=c1cc(-c2ccccc2)oc2cc(O)c(O)c(O)c12 [baicalein] | almost undetected | ~75% | 20.6 µM | 21.2 µM | 1.46 | –
2 | 35±4% | 2.1±0.2 μl/(min·mg protein) | COc1cc([C@H]2Oc3cc([C@H]4Oc5cc(O)cc(O)c5C(=O)[C@@H]4O)ccc3O[C@@H]2CO)ccc1O [silybin A] | – | – | – | – | – | –
3 | 33±1% | 2.5±0.4 μl/(min·mg protein) | COc1cc([C@@H]2Oc3cc([C@H]4Oc5cc(O)cc(O)c5C(=O)[C@@H]4O)ccc3O[C@H]2CO)ccc1O [silybin B] | – | – | – | – | – | –
4 | – | – | COc1ccc(-c2cc(=O)c3c(OC)c(OC)c(OC)c(OC)c3o2)cc1 [tangeretin] | did not significantly inhibit the conjugation | – | 6.88 µM | 8.84 µM | 1.54 | inhibited the biliary clearance of silybin
